The values below come from patent US20240174641A1, “HETEROCYCLIC COMPOUNDS CAPABLE OF […]” (Boehringer Ingelheim International GmbH, priority 2022, published 2024).

The structures appear in SMILES notation.

One assay deals with dog STING (dSTING). Nature of the assay: Dog differential scanning fluorimetry (DSF) assay, thermal shift of dog STING protein. In kind it is binding. The following applies: DSF (dDSF); 100 μM compound, 3 μM dog STING protein; Tm with ligand minus Tm of protein alone. The method in brief: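 Dog STING residues 149–375, His-tag removed by TEV, tested at 3 μM with 100 μM compound, 5× SYPRO Orange and 2% DMSO in 20 mM Tris, 150 mM NaCl, pH 7.5. Heated 15–95 °C in 0.5 °C steps. Tm from Boltzmann fit, duplicates averaged; ΔTm relative to protein alone.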
(In general: In DSF a fluorescence change marks the thermal transition of the protein.)

The target of a further assay is STING (Canis lupus familiaris, UniProt A0A8I3MH52). In words: Dog whole blood (dWB) assay, IFNb secretion by ELISA. The following applies: canine Interferon-beta (IFNb) ELISA, 4 h incubation at 37° C. In kind it is cell-based. An outline of the steps:
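Citrated dog whole blood (stored overnight at 4 °C) was preincubated with compound for 60 min at room temperature, top concentration 10 μM with about 1:4 steps and 0.1% DMSO. It was then incubated 4 h at 37 °C, with cGAMP added only to the high-control wells. Plasma IFNb was measured by canine ELISA (A450), normalised to the cGAMP-stimulated and unstimulated controls, and EC50 was fitted with a 4-parameter logistic model.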
For orientation: In an ELISA, binding on a coated surface is turned into a signal by an enzyme label.

By EC50 is commonly meant the concentration that produces a half-maximal response. Lower therefore signals an effect from little substance.

Sequence of STING (A0A8I3MH52 1-374): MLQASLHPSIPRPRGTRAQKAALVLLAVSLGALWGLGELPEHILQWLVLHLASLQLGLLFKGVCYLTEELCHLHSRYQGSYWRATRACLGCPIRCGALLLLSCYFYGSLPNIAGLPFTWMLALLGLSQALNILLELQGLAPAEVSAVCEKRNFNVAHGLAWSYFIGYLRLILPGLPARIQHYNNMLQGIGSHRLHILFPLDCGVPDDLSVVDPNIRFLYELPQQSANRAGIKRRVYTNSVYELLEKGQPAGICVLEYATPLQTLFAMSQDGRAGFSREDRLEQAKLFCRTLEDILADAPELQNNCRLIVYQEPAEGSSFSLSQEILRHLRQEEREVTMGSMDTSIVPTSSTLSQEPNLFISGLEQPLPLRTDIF

As to `CC(=O)N1C[C@H]2C[C@@H]1CN2c1ccc(-n2nc(-c3c(F)ccc4nn(C)cc34)c3cccc(C)c32)cn1` [Example 31, 1-[(1R,4R)-5-(5-{5″-fluoro-2″,7-dimethyl-1H,2″H-[3,4″-biindazol]-1-yl}pyridin-2-yl)-2,5-diazabicyclo[2.2.1]heptan-2-yl]ethan-1-one], the “Delta TM” value in the assay on dog STING (dSTING) was 30.5 °C. In addition, a half-maximal effect on STING (EC50) was put at 101 nM.

On to `CC(=O)N1CCN(c2ccc(-n3nc(-c4c(F)ccc5nn(C)cc45)c4cccc(C)c43)cn2)CC1` [Example 29, 1-[4-(5-{5″-fluoro-2″,7-dimethyl-1H,2″H-[3,4″-biindazol]-1-yl}pyridin-2-yl)piperazin-1-yl]ethan-1-one], for which the “Delta TM” value with dog STING (dSTING) turned out to be 32.0 °C. In addition, the half-maximal effective concentration (EC50) on STING worked out at 140 nM.

Take `Cc1cc(F)cc2c(-c3cccc4nn(C)c(F)c34)nn(-c3ccc(N4C[C@@H]5[C@H](C4)[C@H]5C(=O)O)nc3)c12` [Example 10, (1R,5S,6R)-3-(5-{3′,5-Difluoro-2′,7-dimethyl-1H,2′H-[3,4′-biindazol]-1-yl}pyridin-2-yl)-3-azabicyclo[3.1.0]hexane-6-carboxylic acid]: the “Delta TM” value with dog STING (dSTING) turned out to be 33.1 °C. For the same molecule, the response at STING was half-maximal at 350 nM (EC50).

For `Cc1cccc2c(-c3c(F)cc(F)c4nn(C)cc34)nn(-c3ccc(N4CCC(C(=O)O)CC4)nc3)c12` [Example 44, 1-(5-{5″,7″-difluoro-2″,7-dimethyl-1H,2″H-[3,4″-biindazol]-1-yl}pyridin-2-yl)piperidine-4-carboxylic acid], in the assay with dog STING (dSTING), the “Delta TM” value worked out at 34.5 °C. At STING, this molecule displayed an EC50 of 388 nM.

Consider `Cc1cccc2c(-c3c(F)cc(F)c4nn(C)cc34)nn(-c3ccc(N4C[C@@H]5[C@H](C4)[C@H]5C(=O)O)nc3)c12` [Example 7, (1R,5S,6S)-3-(5-{5″,7″-Difluoro-2″,7-dimethyl-1H,2″H-[3,4″-biindazol]-1-yl}pyridin-2-yl)-3-zabicyclo[3.1.0]hexane-6-carboxylic acid], for which the “Delta TM” value in the assay with dog STING (dSTING) was found to be 35.5 °C. In addition, it took 250 nM to reach a half-maximal effect at STING (EC50).

For the molecule `Cc1cccc2c(-c3c(F)cc(F)c4nn(C)cc34)nn(-c3ccc(N4CC5CCC4CC5C(=O)O)nc3)c12` (single isomer, unassigned) [Example 48-4], the “Delta TM” value with dog STING (dSTING) was determined as 36.1 °C. The molecule also registered an EC50 at STING of 169 nM.

As for `Cc1cccc2c(-c3cccc4nn(C)c(F)c34)nn(-c3ccc(N4CCOC(CC(=O)O)C4)nc3)c12` (single isomer, unassigned) [Example 72-1], the “Delta TM” value in the assay with dog STING (dSTING) is 30.0 °C. Also, the midpoint of the response on STING, the EC50, lay at 810 nM.

Take `Cc1c(F)ccc2c(-c3c(F)ccc4nn(C)cc34)nn(-c3ccc(N4CCC(C(=O)O)CC4)nc3)c12` [Example 65, 1-(5-{5″,6-difluoro-2″,7-dimethyl-1H,2″H-[3,4″-biindazol]-1-yl}pyridin-2-yl)piperidine-4-carboxylic acid]: the “Delta TM” value in the assay on dog STING (dSTING) was 36.5 °C. Moreover, the response on STING was half-maximal at 330 nM (EC50).

In the case of `Cc1cc(F)cc2c(-c3c(F)cc(F)c4nn(C)cc34)nn(-c3ccc(N4C[C@@H]5[C@H](C4)[C@H]5C(=O)O)nc3)c12` [Example 15, (1R,5S,6R)-3-(5-{5,5″,7″-Trifluoro-2″,7-dimethyl-1H,2″H-[3,4″-biindazol]-1-yl}pyridin-2-yl)-3-azabicyclo[3.1.0]hexane-6-carboxylic acid], the “Delta TM” value in the assay with dog STING (dSTING) worked out at 36.8 °C. In addition, the EC50 at STING came to 1170 nM.

Regarding `Cc1cccc2c(-c3cccc4nn(C)c(F)c34)nn(-c3ccc(N4CCOC(CC(=O)O)C4)nc3)c12` (single isomer, unassigned) [Example 72-3], in the assay on dog STING (dSTING), the “Delta TM” value worked out at 28.5 °C. This molecule yielded an EC50 at STING of 5230 nM.

Consider `CC(=O)N1CCN(c2ccc(-n3nc(-c4c(Cl)ccc5nn(C)cc45)c4cccc(C)c43)cn2)CC1` [Example 78], for which the “Delta TM” value in the assay with dog STING (dSTING) was found to be 18.4 °C. The same molecule registered a 50% effective concentration (EC50) at STING of 817 nM.

On to `Cc1cccc2c(-c3c(F)cc(F)c4nn(C)cc34)nn(-c3ccc(N4C[C@@H]5C[C@H]4C[C@H]5C(=O)O)nc3)c12` (single isomer, unassigned) [Example 47-1], for which the “Delta TM” value in the assay with dog STING (dSTING) came to 34.0 °C. At STING, this molecule displayed an EC50 of 628 nM.
